Data on two compounds can be found in article PMC12261321, “Inhibitors of the Bacterioferritin Ferredoxin Complex Dysregulate Iron Homeostasis and Kill and Biofilm-Embedded Cells” (ACS Infectious Diseases, 2025).

Values joined by “and” are separate entries in the source; they are usually repeats but may differ in a detail not shown here. Identical values can stand only once.

Assay [1] has as its system A. baumannii 5075. Description: Time kill assays. It counts as cell-based. The conditions noted are these: for rate of killing: each agent at its MIC. The method, then:
dissolved in DMSO, such that the resultant solution had the highest concentration of compound or antibiotic tested and 1.5% DMSO. To carry out the serial dilution from the highest compound concentration, a 150 μ L solution of higher concentration compound or antibiotic was mixed with 150 μ L of cell suspension containing 1.5% DMSO in the wells of a 96 well plate.
Th e 96 well plate was in cubated for 20 hat 35 °C with continuous orbital shaking (205 cpm) in an Epoch2 microplate reader (BioTek), monitoring the growth by […]
following the OD600. […]
Time Kill Assays. Time-kill assays were performed with A. baumannii 507 5 by the broth macro- dilution method in M63- medium containing 1.5% DMSO. An overnight culture was diluted to approximately 5 x10^5 CFU/mL in fresh M63 media. The test solutions were prepared by adding compound (KM-5- 35, or KM-5- 25) dissolved in DMSO to 5 mL of diluted cell suspension to yield a solution of the desired compound concentration and 1.5% DMSO, or by the addition of antibiotic dissolved in water and a small volume of DMSO to produce the desired […]
antibiotic concentration and 1.5% DMSO. Controls containing the diluted cell suspension, 1.5% DMSO but no test compounds were also prepared. […]
800 µL of the suspension was lay ered onto 700 µL of chilled silicon oil contained in 1.5 mL Eppendo rf tubes and then centrifuged at 4 °C ( 900 x g) for 10 min, then again at 16,200 x g for 5 min to allow pass ag e of the cell suspension through the silicon oil layer. The aqueous and oil layers were removed, and the cell pellet was washed twice in PBS (800 μ L), each time transferring the cell suspension to a new Eppendorf tube and then centrifuging at 16,200 x g. The cell pellet was lysed in 800 µL methanol by vortexing followed by 10 min incubationat room temperatur e. The lysate suspension was pelleted, the supernatant was transferred to a new Eppendorf tube and then placed into a vacuum concentrator (Eppendorf 5301 Vacufuge) to evaporate the methanol (4 h). The dried

The test system of assay [2] is A. baumannii 5075. Description: Checkerboard assay. It counts as cell-based. The method, then: To carry out the serial dilution from the highest compound concentration, a 150 μ L solution of higher concentration compound or antibiotic was mixed with 150 μ L of cell suspension containing […] Th e 96 well plate was in cubated for 20 hat 35 °C with continuous orbital shaking (205 cpm) in an Epoch2 microplate reader (BioTek), monitoring the growth by following the OD600. […] All assays were p erfo rmed in three biological replicates, each with three […] replicates. Checkerboard Assay. […] CFU/mL. […] in the vertical and hori zontal direction, respectivel y. Bacterial suspensions were […] escrib ed above fo r the MIC determination and added to the plates. […] The 96-well […] cubated for 20 h at 35 °C with continuous orbital shaking (205 cpm) in an Epoch2 microplate reader (BioTek), monitoring the growth by following the OD600. The MIC values of inhibitor and antibiotic were obtained from the corresponding row or column which contained only one component, whereas the remaining rows and columns were utilized for calculating the fractional inhibitory concentration index (FIC) with the aid of equation […] = […]2 Time Kill Assays. Time-kill assays were performed with A. baumannii 507 5 by the broth macro- dilution method […] An overnight culture was diluted to approximately 5 x10^5 CFU/mL in fresh […] media. […] DMSO, or by the addition of antibiotic dissolved in water and a small volume of DMSO to produce the desired S7

On to `O=C1NC(=O)c2c(NCc3cc(Br)ccc3O)cccc21` [KM-5-35, 4-((5-Bromo-2-hydroxybenzyl)amino)isoindoline-1,3-dione], for which, in the assay on A. baumannii 5075 [1] (compound at 1 × MIC), the time kill outcome is on record as “bactericidal”. For the same compound, the “reduction of viable cells (CFU/mL) relative to the inoculum” value in the assay on A. baumannii 5075 [1] (compound at the MIC) is more than 3 log10. In addition, the rate of killing result in the assay on A. baumannii 5075 [1] is given as “faster than meropenem but slower than colistin”. Besides, the FIC in the assay with A. baumannii 5075 [2] (KM-5–35 with ceftazidime, 5075) is on record as 0.50; in the assay with A. baumannii 5075 [2] (KM-5–35 with ciprofloxacin, 5075), 0.53; in the assay on A. baumannii 5075 [2] (KM-5–35 with meropenem, 5075), 0.50; in the assay on A. baumannii 5075 [2] (KM-5–35 with tobramycin, 5075), 0.50. For the same compound, the MIC alone in the assay with A. baumannii 5075 [2] (agent alone, 5075, KM-5–35 14 μg/mL = 40 μM) amounted to 14 µg/mL. Further, the “MIC of KM-5–35 in combination” value with A. baumannii 5075 [2] (in combination with ceftazidime, 5075) amounted to 7 µg/mL; in the assay on A. baumannii 5075 [2] (in combination with ciprofloxacin, 5075) it was 7 µg/mL; in the assay on A. baumannii 5075 [2] (in combination with imipenem, 5075), 3.5 µg/mL; in the assay on A. baumannii 5075 [2] (in combination with tobramycin, 5075), 7 µg/mL.
In the case of `O=C1NC(=O)c2c(NCc3cc(Cl)ccc3O)cccc21` [KM-5-25, 4-((5-Chloro-2-hydroxybenzyl)amino)isoindoline-1,3-dione], the time kill outcome is given as “cell growth is observed at later hours” with A. baumannii 5075 [1] (compound at 1 × MIC) and “bactericidal” with A. baumannii 5075 [1] (compound at 1.5 × MIC (limit of aqueous solubility)). For the same compound, the “reduction of viable cells (CFU/mL) relative to the inoculum” value in the assay on A. baumannii 5075 [1] (compound at the MIC) was “approximately 3 log10”. Moreover, the “time to approximately 3log10 reduction of viable cells” value in the assay with A. baumannii 5075 [1] (compound at the MIC) is given as “approximately 3 h”. Moreover, in the assay with A. baumannii 5075 [1], the rate of killing entry was “slower than that observed with KM-5–35”. The FIC in the assay on A. baumannii 5075 [2] (KM-5–25 with colistin, 5075 (Figure S3)) was 0.36 and 0.38; in the assay with A. baumannii 5075 [2] (KM-5–25 with imipenem, 5075 (Figure S3)), 0.63.
